Values joined by “and” are separate entries in the source; they are usually repeats but may differ in a detail not shown here. Equal entries are not always repeated. Toxic doses and inconclusive results are not listed. No stated cut-off is given here; in the data, active means T/C of 150% or more; inactive means T/C below 125%.
Tested on: L1210 leukemia ip in BDF1 mice, survival T/C
Assay: NCI In Vivo Anticancer Drug Screen. Data for tumor model L1210 Leukemia (intraperitoneal) in B6D2F1 (BDF1) mice
Conditions: endpoint: mean survival time, higher = longer survival
Summary of the method: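 In this screen, tumor-bearing mice given compound are compared to those given vehicle, and their survival values are reported as a treated-to-control quotient.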

[1] = dose: 100.0 mg/kg/injection, schedule: Q01DX001 (ip), vehicle: saline with Tween-80
[2] = dose: 100.0 mg/kg/injection, schedule: Q01DX009 (ip), vehicle: saline with Tween-80
[3] = dose: 200.0 mg/kg/injection, schedule: Q01DX001 (ip), vehicle: saline with Tween-80
[4] = dose: 200.0 mg/kg/injection, schedule: Q01DX009 (ip), vehicle: saline with Tween-80
[5] = dose: 200.0 mg/kg/injection, schedule: Q04DX003 (ip), vehicle: saline with Tween-80
[6] = dose: 400.0 mg/kg/injection, schedule: Q01DX001 (ip), vehicle: saline with Tween-80
[7] = dose: 400.0 mg/kg/injection, schedule: Q01DX009 (ip), vehicle: saline with Tween-80
[8] = dose: 400.0 mg/kg/injection, schedule: Q04DX003 (ip), vehicle: saline with Tween-80
[9] = dose: 100.0 mg/kg/injection, schedule: Q01DX009 (ip), vehicle: Klucel (hydroxypropylcellulose) (HPC)
[10] = dose: 200.0 mg/kg/injection, schedule: Q01DX009 (ip), vehicle: Klucel (hydroxypropylcellulose) (HPC)
[11] = dose: 400.0 mg/kg/injection, schedule: Q01DX009 (ip), vehicle: Klucel (hydroxypropylcellulose) (HPC)
[12] = dose: 100.0 mg/kg/injection, schedule: Q04DX003 (ip), vehicle: Klucel (hydroxypropylcellulose) (HPC)
[13] = dose: 200.0 mg/kg/injection, schedule: Q04DX003 (ip), vehicle: Klucel (hydroxypropylcellulose) (HPC)
[14] = dose: 100.0 mg/kg/injection, schedule: Q01DX001 (ip), vehicle: saline
[15] = dose: 200.0 mg/kg/injection, schedule: Q01DX001 (ip), vehicle: saline
[16] = dose: 400.0 mg/kg/injection, schedule: Q01DX001 (ip), vehicle: saline
[17] = dose: 75.0 mg/kg/injection, schedule: Q01DX001 (ip), vehicle: saline
[18] = dose: 150.0 mg/kg/injection, schedule: Q01DX001 (ip), vehicle: saline
[19] = dose: 200.0 mg/kg/injection, schedule: Q01DX001 (ip), vehicle: carboxymethylcellulose (CMC)
[20] = dose: 400.0 mg/kg/injection, schedule: Q01DX001 (ip), vehicle: carboxymethylcellulose (CMC)
[21] = dose: 100.0 mg/kg/injection, schedule: Q04DX003 (ip), vehicle: saline with Tween-80

Measured: T/C

CCOC(=O)c1ccc(NC(=O)N(C2CCCCC2)C2CCCCC2)cc1
inactive: [1] 86 % of control | [2] 101 % of control | dose: 100.0 mg/kg/injection, schedule: Q04DX002 (ip), vehicle: saline with Tween-80 103 % of control and 90 % of control | [3] 86 % of control | [4] 92 % of control | dose: 200.0 mg/kg/injection, schedule: Q04DX002 (ip), vehicle: saline with Tween-80 94 % of control | [5] 94 % of control | [6] 93 % of control | [7] 101 % of control | dose: 400.0 mg/kg/injection, schedule: Q04DX002 (ip), vehicle: saline with Tween-80 94 % of control and 90 % of control | [8] 91 % of control

CC(=O)C1CC2C=CCC(C2)C1 (configuration not stated)
inactive: [1] 95 % of control | [3] 90 % of control | [6] 96 % of control

COc1ccc(COC(=O)Nc2ccc(Br)cc2)c(OC)c1
inactive: [9] 98 % of control | [10] 104 % of control | [11] 101 % of control

Cc1cc([N+](=O)[O-])ccc1S(N)(=O)=O
inactive: [12] 105 % of control | [13] 105 % of control | dose: 400.0 mg/kg/injection, schedule: Q04DX003 (ip), vehicle: Klucel (hydroxypropylcellulose) (HPC) 109 % of control

Cl[SiH](Cl)c1ccccc1
inactive: [14] 96 % of control | [15] 96 % of control | [16] 90 % of control

C[N+]1(CCl)CCOCC1
inactive: dose: 1.74 mg/kg/injection, schedule: Q01DX009 (ip), vehicle: saline 104 % of control | dose: 2.6 mg/kg/injection, schedule: Q01DX009 (ip), vehicle: saline 104 % of control | dose: 4.0 mg/kg/injection, schedule: Q01DX001 (ip), vehicle: saline 105 % of control | dose: 4.0 mg/kg/injection, schedule: Q01DX009 (ip), vehicle: saline 94 % of control | dose: 4.0 mg/kg/injection, schedule: Q04DX003 (ip), vehicle: saline 100 % of control | dose: 4.0 mg/kg/injection, schedule: Q08DX002 (ip), vehicle: saline 105 % of control | dose: 6.0 mg/kg/injection, schedule: Q01DX001 (ip), vehicle: saline 102 % of control | dose: 6.0 mg/kg/injection, schedule: Q01DX009 (ip), vehicle: saline 102 % of control | dose: 6.0 mg/kg/injection, schedule: Q04DX003 (ip), vehicle: saline 98 % of control | dose: 6.0 mg/kg/injection, schedule: Q08DX002 (ip), vehicle: saline 111 % of control | dose: 9.0 mg/kg/injection, schedule: Q01DX009 (ip), vehicle: saline 100 % of control | dose: 10.0 mg/kg/injection, schedule: Q01DX001 (ip), vehicle: saline 102 % of control | dose: 10.0 mg/kg/injection, schedule: Q04DX003 (ip), vehicle: saline 105 % of control | dose: 10.0 mg/kg/injection, schedule: Q08DX002 (ip), vehicle: saline 104 % of control | dose: 14.0 mg/kg/injection, schedule: Q01DX001 (ip), vehicle: saline 104 % of control | dose: 14.0 mg/kg/injection, schedule: Q04DX003 (ip), vehicle: saline 102 % of control | dose: 14.0 mg/kg/injection, schedule: Q08DX002 (ip), vehicle: saline 107 % of control | dose: 21.0 mg/kg/injection, schedule: Q01DX001 (ip), vehicle: saline 102 % of control | dose: 21.0 mg/kg/injection, schedule: Q04DX003 (ip), vehicle: saline 100 % of control | dose: 21.0 mg/kg/injection, schedule: Q08DX002 (ip), vehicle: saline 100 % of control | [17] 98 % of control | [18] 107 % of control

Oc1cccc(/C=N/Nc2nnc(N/N=C/c3cccc(O)c3)c3ccccc23)c1
inactive: dose: 50.0 mg/kg/injection, schedule: Q01DX001 (ip), vehicle: carboxymethylcellulose (CMC) 108 % of control | dose: 100.0 mg/kg/injection, schedule: Q01DX001 (ip), vehicle: carboxymethylcellulose (CMC) 101 % of control | [19] 98 % of control | [20] 96 % of control

CC(C)CCCC(C)C1CCC2C3CC=C4CC(C(=O)NN)CCC4(C)C3CCC12C (configuration not stated)
inactive: [21] 96 % of control | [5] 96 % of control | [8] 98 % of control

COc1nccc(SC)n1
inactive: dose: 95.0 mg/kg/injection, schedule: Q04DX003 (ip), vehicle: Klucel (hydroxypropylcellulose) (HPC) 110 % of control | [12] 107 % of control and 91 % of control | dose: 135.0 mg/kg/injection, schedule: Q04DX003 (ip), vehicle: Klucel (hydroxypropylcellulose) (HPC) 105 % of control | [13] 96 % of control and 97 % of control

CCOP(=S)(Nc1cccc(C(F)(F)F)c1)OCC
inactive: [14] 102 % of control | [15] 100 % of control | [16] 96 % of control

CC(C)C[n+]1cc([O-])on1
inactive: dose: 6.25 mg/kg/injection, schedule: Q01DX009 (ip), vehicle: Klucel (hydroxypropylcellulose) (HPC) 97 % of control | dose: 12.5 mg/kg/injection, schedule: Q01DX009 (ip), vehicle: Klucel (hydroxypropylcellulose) (HPC) 100 % of control

CCCCC(=O)N/N=C/c1ccccc1[N+](=O)[O-]
inactive: [19] 95 % of control | [20] 90 % of control

Cc1cccc(Cl)c1N=Nc1sc(N)nc1C
inactive: [17] 105 % of control | [18] 105 % of control

O=[As](O)(O)CCc1ccccc1
inactive: dose: 12.5 mg/kg/injection, schedule: Q04DX003 (ip), vehicle: Klucel (hydroxypropylcellulose) (HPC) 101 % of control | dose: 25.0 mg/kg/injection, schedule: Q04DX003 (ip), vehicle: Klucel (hydroxypropylcellulose) (HPC) 108 % of control

CC1(Cc2ccccc2)CCC(=O)O1 (configuration not stated)
inactive: [2] 98 % of control | [21] 98 % of control | [4] 100 % of control | [5] 96 % of control | [7] 87 % of control | [8] 104 % of control

N=C(N=c1cc(C(=O)NC(=N)NC(=N)Nc2ccccc2)n(C(=N)NC(=N)Nc2ccccc2)c(C(=O)NC(=N)NC(=N)Nc2ccccc2)c1)NC(=N)Nc1ccccc1
inactive: dose: 100.0 mg/kg/injection, schedule: Q01DX009 (ip), vehicle: saline 105 % of control | dose: 200.0 mg/kg/injection, schedule: Q01DX009 (ip), vehicle: saline 94 % of control | dose: 400.0 mg/kg/injection, schedule: Q01DX009 (ip), vehicle: saline 87 % of control

O=C(Nc1ccc(Cl)cc1)Nc1cccc(F)c1
inactive: [9] 90 % of control | [10] 94 % of control | [11] 110 % of control

O=C1O[C@@H]2[C@@H](I)[C@@H]3C[C@@H]2[C@@H]1C3
inactive: dose: 5.0 mg/kg/injection, schedule: Q01DX001 (ip), vehicle: carboxymethylcellulose (CMC) 91 % of control | dose: 10.0 mg/kg/injection, schedule: Q01DX001 (ip), vehicle: carboxymethylcellulose (CMC) 93 % of control | dose: 20.0 mg/kg/injection, schedule: Q01DX001 (ip), vehicle: carboxymethylcellulose (CMC) 94 % of control | dose: 40.0 mg/kg/injection, schedule: Q01DX001 (ip), vehicle: carboxymethylcellulose (CMC) 91 % of control | dose: 80.0 mg/kg/injection, schedule: Q01DX001 (ip), vehicle: carboxymethylcellulose (CMC) 93 % of control

S=c1[nH]c2ccccc2s1
inactive: dose: 25.0 mg/kg/injection, schedule: Q01DX009 (ip), vehicle: saline with Tween-80 94 % of control | dose: 50.0 mg/kg/injection, schedule: Q01DX009 (ip), vehicle: saline with Tween-80 105 % of control | [9] 88 % of control | [2] 109 % of control | dose: 100.0 mg/kg/injection, schedule: Q04DX002 (ip), vehicle: saline 115 % of control | dose: 100.0 mg/kg/injection, schedule: Q04DX003 (ip), vehicle: other 96 % of control | [21] 96 % of control | [10] 100 % of control | dose: 200.0 mg/kg/injection, schedule: Q04DX002 (ip), vehicle: saline 112 % of control | dose: 200.0 mg/kg/injection, schedule: Q04DX003 (ip), vehicle: other 96 % of control | [5] 100 % of control | [11] 95 % of control | dose: 400.0 mg/kg/injection, schedule: Q04DX003 (ip), vehicle: other 101 % of control

Reference: PubChem BioAssay AID248 (DTP/NCI, 2004)
